The experiment addresses T1, GPR7 (Homo sapiens, UniProt P48145).
T1 construct: expressed in transfected cells; host or cells: CHO dhfr- cells, plasmid pAKKO-Human GPR7 (high-expression clones 7, 8, 14)
T1 sequence (P48145 1-328): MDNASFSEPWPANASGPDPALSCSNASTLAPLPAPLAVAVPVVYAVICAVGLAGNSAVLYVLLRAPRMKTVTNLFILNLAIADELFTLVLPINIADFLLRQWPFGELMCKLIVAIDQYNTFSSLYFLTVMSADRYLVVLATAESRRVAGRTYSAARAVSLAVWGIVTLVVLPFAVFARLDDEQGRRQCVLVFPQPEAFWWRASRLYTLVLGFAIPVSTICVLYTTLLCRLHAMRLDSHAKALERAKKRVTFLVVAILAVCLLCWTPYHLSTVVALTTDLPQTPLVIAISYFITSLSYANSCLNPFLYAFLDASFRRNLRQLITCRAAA
Kind of experiment: GTPγS-binding promoting activity on GPR7-expressed CHO cell membrane fraction. The experiment is classed as biochemical. As for the experimental part: The [^35S]-guanosine 5′-(γ-thio)triphosphate (GTPγS) binding promoting activity on the GPR7-expressed CHO cell membrane fraction was assayed by the following procedures.
The GPR7-expressed CHO cell membrane fraction prepared by the method described in EXAMPLE 2 was diluted with a membrane dilution buffer (50 mM Tris-hydrochloride buffer (pH 7.4), 5 mM MgCl2, 150 mM NaCl, 1 μM GDP and 0.1% BSA) to prepare a cell membrane fraction solution for assay having a protein level of 30 μg/ml. To 200 μl of the cell membrane fraction solution for assay were added 2 μl of 50 nM [^35S]-guanosine 5′-(γ-thio)triphosphate (NEN Co.) and 2 μl of a sample solution in DMSO, which was adjusted to an appropriate concentration. The resulting mixture was kept warm at 25° C. for an hour. The mixture was filtrated through a filter. After the filter was washed twice with 1.5 ml of a wash buffer (50 mM Tris-hydrochloride buffer (pH 7.4), 5 mM MgCl2, 1 mM EDTA and 0.1% BSA), radioactivity of the filter was measured with a liquid scintillation counter.
Following the procedures described in 1) above, hGPR8L (1-23) or hGPR8L (1-30) were given to the GPR7-expressed CHO cell membrane fraction in various concentrations to assay for the GTPγS-binding promoting activity. […]

Where a SMILES comes first, the peptide text is derived from it. A value given as a limit tells only on which side of the number the result lay.

Our source for the EC50 values is patent US7247440B2, “Method of screening preventives or remedies for obesity” (Takeda Pharmaceutical Company Limited, priority 2001, dated 2007).

A word on the EC50: it is the concentration needed to bring the measured effect to its halfway point. The low end stands for a more potent agent, the high end for a less potent agent. `CSCC[C@H](NC(=O)[C@H](CC(C)C)NC(=O)[C@H](CC(C)C)NC(=O)CNC(=O)[C@H](C)NC(=O)[C@H](C)NC(=O)[C@H](CCCNC(=N)N)NC(=O)CNC(=O)[C@@H](NC(=O)[C@@H](NC(=O)[C@H](Cc1c[nH]cn1)NC(=O)[C@H](Cc1ccc(O)cc1)NC(=O)[C@H](CCCNC(=N)N)NC(=O)[C@@H]1CCCN1C(=O)[C@H](CO)NC(=O)[C@H](C)NC(=O)[C@@H](NC(=O)[C@@H](N)Cc1c[nH]cn1)C(C)C)[C@@H](C)O)C(C)C)C(=O)NCC(=O)N[C@@H](CC(C)C)C(=O)O` [hGPR8L(4–23)] (H-HVASPRYHTVGRAAGLLMGL-OH; C-terminus assumed) registered a half-maximal effective concentration (EC50) above 10000 nM.
To `CSCC[C@H](NC(=O)[C@H](CC(C)C)NC(=O)[C@H](CC(C)C)NC(=O)CNC(=O)[C@H](C)NC(=O)[C@H](C)NC(=O)[C@H](CCCNC(=N)N)NC(=O)CNC(=O)[C@@H](NC(=O)[C@@H](NC(=O)[C@H](Cc1c[nH]cn1)NC(=O)[C@H](Cc1ccc(O)cc1)NC(=O)[C@@H](N)CCCNC(=N)N)[C@@H](C)O)C(C)C)C(=O)NCC(=O)N[C@@H](CC(C)C)C(=O)O` [hGPR8L(9–23), Arg-Tyr-His-Thr-Val-Gly-Arg-Ala-Ala-Gly-Leu-Leu-Met-Gly-Leu] (H-RYHTVGRAAGLLMGL-OH; C-terminus assumed) belongs above 10000 nM.
